Assay results taken from doi:10.1101/2020.07.01.182642v1 (biorxiv, 2020).

Experiments:
Details in all cases: binder
CAMK2D = CAMK2D (Homo sapiens, UniProt Q13557)
MAPK8 = MAPK8 (Homo sapiens, UniProt P45983)
GRK5 = GRK5 (Homo sapiens, UniProt P34947)
PBK = PBK (Homo sapiens, UniProt Q96KB5)
RIPK3 = RIPK3 (Homo sapiens, UniProt Q9Y572)
SRPK2 = SRPK2 (Homo sapiens, UniProt P78362)
PDPK1 = PDPK1 (Homo sapiens, UniProt O15530)
STK25 = STK25 (Homo sapiens, UniProt O00506)
CDKL5 = CDKL5 (Homo sapiens, UniProt O76039)
SIK2 = SIK2 (Homo sapiens, UniProt Q9H0K1)
GRK1 = GRK1 (Homo sapiens, UniProt Q15835)
GRK1, sequence (Q15835 whole entry): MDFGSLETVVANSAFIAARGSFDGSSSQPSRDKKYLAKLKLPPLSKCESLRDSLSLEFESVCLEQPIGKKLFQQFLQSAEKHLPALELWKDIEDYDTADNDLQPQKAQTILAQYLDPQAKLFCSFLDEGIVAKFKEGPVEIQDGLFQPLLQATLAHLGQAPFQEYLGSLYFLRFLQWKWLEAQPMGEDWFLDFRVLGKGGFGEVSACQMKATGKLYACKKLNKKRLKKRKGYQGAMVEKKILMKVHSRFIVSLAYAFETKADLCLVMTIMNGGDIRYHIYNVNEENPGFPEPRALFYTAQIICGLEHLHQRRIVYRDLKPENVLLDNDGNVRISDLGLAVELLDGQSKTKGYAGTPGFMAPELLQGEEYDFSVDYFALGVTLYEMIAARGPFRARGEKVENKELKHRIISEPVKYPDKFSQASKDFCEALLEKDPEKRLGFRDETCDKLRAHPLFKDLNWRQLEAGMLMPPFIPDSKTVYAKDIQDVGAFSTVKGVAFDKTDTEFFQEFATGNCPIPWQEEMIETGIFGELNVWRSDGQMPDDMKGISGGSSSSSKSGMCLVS

PRKG1 = PRKG1 (Homo sapiens, UniProt Q13976)
VRK3 = VRK3 (Homo sapiens, UniProt Q8IV63)
DCLK1 = DCLK1 (Homo sapiens, UniProt O15075)
DCLK1, sequence (O15075 whole entry): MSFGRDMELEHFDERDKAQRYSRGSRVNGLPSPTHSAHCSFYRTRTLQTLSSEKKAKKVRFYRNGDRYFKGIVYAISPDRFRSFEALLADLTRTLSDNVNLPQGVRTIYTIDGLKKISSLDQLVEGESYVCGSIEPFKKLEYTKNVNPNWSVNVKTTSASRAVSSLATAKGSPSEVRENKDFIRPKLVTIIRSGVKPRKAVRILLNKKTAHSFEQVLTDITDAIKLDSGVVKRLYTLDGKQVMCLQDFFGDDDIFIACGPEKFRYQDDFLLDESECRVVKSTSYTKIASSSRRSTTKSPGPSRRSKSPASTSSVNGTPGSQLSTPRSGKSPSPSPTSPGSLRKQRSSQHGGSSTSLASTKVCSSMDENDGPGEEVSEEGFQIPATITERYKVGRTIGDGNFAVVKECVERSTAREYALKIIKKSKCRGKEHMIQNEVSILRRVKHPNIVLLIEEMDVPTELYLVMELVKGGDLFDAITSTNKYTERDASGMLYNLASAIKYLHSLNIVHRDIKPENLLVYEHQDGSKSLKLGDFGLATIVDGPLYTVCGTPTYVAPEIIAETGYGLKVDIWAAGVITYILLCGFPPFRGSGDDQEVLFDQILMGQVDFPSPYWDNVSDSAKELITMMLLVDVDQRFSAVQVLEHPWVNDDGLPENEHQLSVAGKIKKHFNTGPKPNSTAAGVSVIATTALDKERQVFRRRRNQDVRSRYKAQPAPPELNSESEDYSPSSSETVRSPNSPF

PRKD3 = PRKD3 (Homo sapiens, UniProt O94806)
PRKD3, sequence (O94806 whole entry): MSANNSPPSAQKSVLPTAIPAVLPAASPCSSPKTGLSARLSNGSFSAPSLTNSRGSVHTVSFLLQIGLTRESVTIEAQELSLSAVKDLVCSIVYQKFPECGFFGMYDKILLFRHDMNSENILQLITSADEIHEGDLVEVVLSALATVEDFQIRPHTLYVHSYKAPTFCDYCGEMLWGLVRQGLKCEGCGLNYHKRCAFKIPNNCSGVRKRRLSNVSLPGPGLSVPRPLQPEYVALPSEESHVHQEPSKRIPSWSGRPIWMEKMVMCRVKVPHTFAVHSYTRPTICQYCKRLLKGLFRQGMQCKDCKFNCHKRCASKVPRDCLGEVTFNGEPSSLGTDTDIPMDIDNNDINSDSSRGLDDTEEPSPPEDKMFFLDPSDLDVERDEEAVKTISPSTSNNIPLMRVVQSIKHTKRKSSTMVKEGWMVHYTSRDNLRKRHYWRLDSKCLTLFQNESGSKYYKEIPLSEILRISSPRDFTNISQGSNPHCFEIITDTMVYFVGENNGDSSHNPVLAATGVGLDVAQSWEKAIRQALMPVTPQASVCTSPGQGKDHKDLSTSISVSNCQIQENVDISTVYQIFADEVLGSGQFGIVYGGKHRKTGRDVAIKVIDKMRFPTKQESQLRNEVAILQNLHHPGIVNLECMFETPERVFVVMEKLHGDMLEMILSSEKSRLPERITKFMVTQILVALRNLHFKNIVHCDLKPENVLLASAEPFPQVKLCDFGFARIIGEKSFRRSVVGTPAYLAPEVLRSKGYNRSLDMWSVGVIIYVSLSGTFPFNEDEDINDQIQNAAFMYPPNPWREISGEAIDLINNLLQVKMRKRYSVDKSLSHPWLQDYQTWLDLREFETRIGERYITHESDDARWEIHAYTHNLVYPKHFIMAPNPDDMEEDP

TEC = TEC (Homo sapiens, UniProt P42680)
SRPK1 = SRPK1 (Homo sapiens, UniProt Q96SB4)
SIK1 = SIK1 (Homo sapiens, UniProt P57059)
GSK3B = GSK3B (Homo sapiens, UniProt P49841)
GSK3B, sequence (P49841 whole entry): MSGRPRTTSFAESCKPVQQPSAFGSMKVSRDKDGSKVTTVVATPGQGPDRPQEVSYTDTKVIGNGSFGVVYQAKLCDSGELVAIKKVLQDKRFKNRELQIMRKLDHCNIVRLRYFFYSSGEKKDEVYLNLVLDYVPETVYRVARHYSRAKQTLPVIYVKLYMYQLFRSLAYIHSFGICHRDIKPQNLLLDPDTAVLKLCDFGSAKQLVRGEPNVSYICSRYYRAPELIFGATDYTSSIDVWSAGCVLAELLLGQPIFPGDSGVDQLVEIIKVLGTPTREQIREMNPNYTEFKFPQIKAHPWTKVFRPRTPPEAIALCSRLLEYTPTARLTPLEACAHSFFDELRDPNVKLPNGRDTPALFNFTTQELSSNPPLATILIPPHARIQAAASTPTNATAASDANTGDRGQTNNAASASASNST

STK4 = STK4 (Homo sapiens, UniProt Q13043)
STK38 = STK38 (Homo sapiens, UniProt Q15208)
STK38, sequence (Q15208 whole entry): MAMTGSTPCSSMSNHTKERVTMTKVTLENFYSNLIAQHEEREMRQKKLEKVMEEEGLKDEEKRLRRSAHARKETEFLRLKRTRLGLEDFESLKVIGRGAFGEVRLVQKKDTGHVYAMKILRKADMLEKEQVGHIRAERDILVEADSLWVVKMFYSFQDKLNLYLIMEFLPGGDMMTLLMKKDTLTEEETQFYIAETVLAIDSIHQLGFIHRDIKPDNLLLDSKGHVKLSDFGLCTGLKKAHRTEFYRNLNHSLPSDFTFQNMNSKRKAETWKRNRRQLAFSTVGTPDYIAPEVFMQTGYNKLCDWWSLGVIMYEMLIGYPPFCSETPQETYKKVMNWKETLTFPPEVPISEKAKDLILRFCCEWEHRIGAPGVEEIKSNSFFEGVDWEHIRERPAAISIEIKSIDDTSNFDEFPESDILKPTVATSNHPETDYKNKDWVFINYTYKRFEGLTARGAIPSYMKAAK

CLK3 (R134-T484) [1] = target: CLK3 (R134-T484) (Homo sapiens, UniProt P49761, A319V)
CLK3 (R134-T484) (Homo sapiens, UniProt P49761, A319V), sequence (P49761 134-484 A319V): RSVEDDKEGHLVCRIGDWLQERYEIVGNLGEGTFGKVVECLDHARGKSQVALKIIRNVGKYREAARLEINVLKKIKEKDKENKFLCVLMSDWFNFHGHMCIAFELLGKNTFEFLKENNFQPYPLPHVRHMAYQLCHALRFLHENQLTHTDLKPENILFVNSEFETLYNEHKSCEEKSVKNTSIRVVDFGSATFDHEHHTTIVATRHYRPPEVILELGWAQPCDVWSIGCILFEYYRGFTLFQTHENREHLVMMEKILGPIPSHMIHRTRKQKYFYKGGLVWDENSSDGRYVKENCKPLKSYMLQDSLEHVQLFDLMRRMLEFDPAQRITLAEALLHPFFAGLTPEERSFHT

CLK3 (R134-T484) [2] = target: CLK3 (R134-T484) (Homo sapiens, UniProt P49761)
CLK3 (R134-T484) (Homo sapiens, UniProt P49761), sequence (P49761 134-484): as the sequence (P49761 134-484 A319V) above, with V186A counted along it

PIM1 = PIM1 (Homo sapiens, UniProt P11309)
STK3 = STK3 (Homo sapiens, UniProt Q13188)
STK3, sequence (Q13188 whole entry): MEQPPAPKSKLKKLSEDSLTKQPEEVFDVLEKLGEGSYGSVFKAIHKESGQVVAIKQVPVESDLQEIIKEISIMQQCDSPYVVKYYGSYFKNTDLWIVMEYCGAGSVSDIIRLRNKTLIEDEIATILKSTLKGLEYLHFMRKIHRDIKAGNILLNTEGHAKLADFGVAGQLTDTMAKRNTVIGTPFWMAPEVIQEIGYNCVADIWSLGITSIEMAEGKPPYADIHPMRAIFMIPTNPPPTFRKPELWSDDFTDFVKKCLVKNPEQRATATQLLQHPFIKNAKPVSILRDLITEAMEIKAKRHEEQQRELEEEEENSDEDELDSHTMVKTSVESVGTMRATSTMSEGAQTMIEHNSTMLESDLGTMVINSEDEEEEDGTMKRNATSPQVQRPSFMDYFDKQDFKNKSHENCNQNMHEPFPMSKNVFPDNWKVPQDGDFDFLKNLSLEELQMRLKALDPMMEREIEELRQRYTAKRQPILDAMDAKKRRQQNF

CSNK1E = CSNK1E (Homo sapiens, UniProt P49674)
BMPR2 = BMPR2 (Homo sapiens, UniProt Q13873)
CLK1 (H148-I484) [3] = target: CLK1 (H148-I484) (Homo sapiens, UniProt P49759, V324A)
CLK1 (H148-I484) [4] = target: CLK1 (H148-I484) (Homo sapiens, UniProt P49759)
IGF1R = IGF1R (Homo sapiens, UniProt P08069)

PDPK1, sequence (O15530 whole entry): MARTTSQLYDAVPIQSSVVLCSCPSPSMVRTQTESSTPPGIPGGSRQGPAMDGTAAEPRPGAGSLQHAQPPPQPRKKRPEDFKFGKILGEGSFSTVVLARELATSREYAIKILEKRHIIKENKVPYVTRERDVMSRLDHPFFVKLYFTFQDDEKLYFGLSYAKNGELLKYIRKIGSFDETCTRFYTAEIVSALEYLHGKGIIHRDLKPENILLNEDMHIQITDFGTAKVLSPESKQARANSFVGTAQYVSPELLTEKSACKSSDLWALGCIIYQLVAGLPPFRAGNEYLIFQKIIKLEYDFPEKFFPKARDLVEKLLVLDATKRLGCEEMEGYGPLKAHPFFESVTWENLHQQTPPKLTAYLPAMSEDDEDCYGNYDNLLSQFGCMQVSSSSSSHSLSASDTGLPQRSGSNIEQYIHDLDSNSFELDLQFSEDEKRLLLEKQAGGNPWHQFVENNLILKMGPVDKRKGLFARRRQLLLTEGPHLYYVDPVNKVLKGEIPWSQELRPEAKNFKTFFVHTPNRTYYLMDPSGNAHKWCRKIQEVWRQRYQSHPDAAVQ
STK25, sequence (O00506 whole entry): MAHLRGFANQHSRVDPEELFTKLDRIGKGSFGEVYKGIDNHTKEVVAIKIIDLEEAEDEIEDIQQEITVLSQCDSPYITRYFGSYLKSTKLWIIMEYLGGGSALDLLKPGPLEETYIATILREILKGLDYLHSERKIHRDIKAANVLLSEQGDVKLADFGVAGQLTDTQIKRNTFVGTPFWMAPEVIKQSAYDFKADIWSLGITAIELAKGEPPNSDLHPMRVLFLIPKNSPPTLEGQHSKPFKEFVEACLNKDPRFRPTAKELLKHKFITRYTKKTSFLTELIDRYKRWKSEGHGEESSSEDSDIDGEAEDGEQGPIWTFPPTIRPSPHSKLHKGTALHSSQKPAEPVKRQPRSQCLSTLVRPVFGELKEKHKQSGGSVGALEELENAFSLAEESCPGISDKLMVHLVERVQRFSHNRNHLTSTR

## CCN1/C(=C/C(C)=O)Sc2ccc(OC)cc21 [compound 2, TG003]
CAMK2D
  ΔTm inhibitor 2: -0.6 °C
MAPK8
  ΔTm inhibitor 2: 0.7 °C
GRK5
  ΔTm inhibitor 2: 0.8 °C
PBK
  ΔTm inhibitor 2: 0.5 °C
RIPK3
  ΔTm inhibitor 2: -0.6 °C
SRPK2
  ΔTm inhibitor 2: -0.2 °C
PDPK1
  ΔTm inhibitor 2: 0.2 °C
STK25
  ΔTm inhibitor 2: 0.7 °C
CDKL5
  ΔTm inhibitor 2: 1.1 °C
SIK2
  ΔTm inhibitor 2: -0.2 °C
GRK1
  ΔTm inhibitor 2: 0.4 °C
PRKG1
  ΔTm inhibitor 2: 1.6 °C
VRK3
  ΔTm inhibitor 2: 0.5 °C
DCLK1
  ΔTm inhibitor 2: -0.4 °C
PRKD3
  ΔTm inhibitor 2: 2.7 °C
TEC
  ΔTm inhibitor 2: 1.0 °C
SRPK1
  ΔTm inhibitor 2: 0.0 °C
SIK1
  ΔTm inhibitor 2: 1.5 °C
GSK3B
  ΔTm inhibitor 2: 1.4 °C
STK4
  ΔTm inhibitor 2: 0.7 °C
STK38
  ΔTm inhibitor 2: 0.4 °C

## CC(=O)c1cccc(-c2cnc3ccc(NCC4CC4)nn23)c1 [compound 1, K00135]
CLK3 (R134-T484) [1]
  ΔTm A319V CLK3: 5.8 °C
CLK3 (R134-T484) [2]
  ΔTm wild type CLK3: 1.4 °C
STK25
  ΔTm inhibitor 1: 0.5 °C
PIM1
  ΔTm inhibitor 1: 6.3 °C
GRK1
  ΔTm inhibitor 1: 1.1 °C
STK3
  ΔTm inhibitor 1: 2.9 °C
DCLK1
  ΔTm inhibitor 1: 0.6 °C
PRKD3
  ΔTm inhibitor 1: 0.8 °C
GSK3B
  ΔTm inhibitor 1: 4.1 °C
CSNK1E
  ΔTm inhibitor 1: 4.4 °C
BMPR2
  ΔTm inhibitor 1: 7.8 °C
STK4
  ΔTm inhibitor 1: 2.6 °C
STK38
  ΔTm inhibitor 1: 1.1 °C
CLK1 (H148-I484) [3]
  ΔTm V324A CLK1: 4.9 °C
CLK1 (H148-I484) [4]
  ΔTm wild type CLK1: 7.2 °C

## Nc1nccc(-c2ccc3noc(-c4ccc(Cl)cc4)c3c2)n1 [compound 4, K00972]
CLK3 (R134-T484) [1]
  ΔTm A319V CLK3: 0.6 °C
CLK3 (R134-T484) [2]
  ΔTm wild type CLK3: 0.1 °C
MAPK8
  ΔTm inhibitor 4: 1.0 °C
SRPK2
  ΔTm inhibitor 4: 0.4 °C
PDPK1
  ΔTm inhibitor 4: 0.3 °C
CDKL5
  ΔTm inhibitor 4: 0.3 °C
SIK2
  ΔTm inhibitor 4: 0.4 °C
STK3
  ΔTm inhibitor 4: 1.6 °C
PRKG1
  ΔTm inhibitor 4: 0.5 °C
IGF1R
  ΔTm inhibitor 4: 0.2 °C
CLK1 (H148-I484) [3]
  ΔTm V324A CLK1: 2.4 °C
CLK1 (H148-I484) [4]
  ΔTm wild type CLK1: 5.7 °C
